Laboratory results published in patent US4094964A, “Clonidine assay” (Hoffmann-La Roche Inc., priority 1977, dated 1978).

Tested on: antibody in the antiserum of rabbit immunized by the clonidine bovine serum albumin immunogen
Experiment: Radioimmunoassay specificity: competition with clonidine-14C for binding to the antiserum
Conditions: 100 ng to 500 pg of competitor, antiserum 1:50, about 18 hours at 4° C., pH 7.4
Description: The antiserum of Example 3 as used for the radioimmunoassay was diluted with normal rabbit serum which was diluted with phosphate-buffered saline, pH 7.4, at 1:10-dilution. To determine the antibody titre of antiserum, 0.1 ml of various dilutions of the antiserum was incubated in an assay tube (10 × 75 mm) with 2 ng of clonidine ^14 C approximately 3,000 cpm at 4° C. for about 18 hours. The volume was adjusted to 0.5 ml with phosphate-buffered saline, pH 7.4, which is the optimal pH for the assay. The antibody bound clonidine was separated from free clonidine by the addition of saturated ammonium sulfate which was adjusted to pH 7.4 with ammonium hydroxide as described by Farr, J. Infect. Dis 103, 239 (1958). After 2 washings with 50% saturated ammonium sulfate, the precipitate was dissolved in 0.5 ml of water. The content of the tube was transferred to counting vial and the tube was then washed 4 times with 3 ml of Riafluor. The 12 ml washings were all collected in the vial. The radioactivity was then counted with a Beckman liquid scintillation counter. The dilution of the antiserum chosen for further studies was 1:50.
Appropriate volume of phosphate-buffered saline, pH 7.4 was added to all tubes containing 0.1 ml of the antiserum to make a final incubation volume of 0.5 ml. To the tubes were added 100 ul of clonidine-^14 C and various quantities ranging from 100 ng to 500 pg of clonidine, 2-(2,6-dichloro-4-hydroxyanilino)-2-imidazoline (4-hydroxyclonidine), 2-(2,6-dichloro-4-sulfonamidoanilino)-2-imidazoline (4-sulfonamidoclonidine),2-(2-chloro-3-methylanilino)-2-imidazoline, 2-(2-chloro-4-methylanilino)-2-imidazoline, 2-(2-chloro-6-methylanilino)-2-imidazoline, 2-anilino-2-imidazoline, 2-(2,6-dichloro-anilino)-2-methyl-2-imidazoline (2-methylclonidine), 2-(2,6-dichloroanilino)-1-methyl-2-imidazoline (1-methylclonidine), 1-acetamido-2-(2,6-dichloroanilino)-2-imidazoline (1-acetamidoclonidine), 2-(2,6-dichloroanilino)-2-pyrroline, 2-(2,6-dichloroanilino)-2-oxazoline, 2-(2,6-dichloroanilino)-2-benzimidazole, 2-(2,6-dichloroanilino)-1,3-dimethylquanidine, 2-(2,6-dichloroanilino)-1-methylguanidine, 2-(2,6-dichloroanilino)quanidine, aniline or 2-(2,6-dichlorobenzyl)-2-imidazoline. The tubes were then incubated for about 18 hours at 4° C. followed by precipitation with ammonium sulfate.
The specificity of the antibody in the antiserum of rabbit immunized by the clonidine bovine serum albumin immunogen was determined by incubating the antiserum with 2-(2,6-dichloro-4-hydroxyanilino)-2-imidazoline (4-hydroxyclonidine), 2-(2,6-dichloro-4-sulfonamidoanilino)-2-imidazoline (4-sulfonamidoclonidine), 2-(2-chloro-3-methylanilino)-2-imidazoline, 2-(2-chloro-4-methylanilino)-2-imidazoline, 2-(2-chloro-6-methylanilino)-2-imidazoline, 2-anilino-2-imidazoline, 2-(2,6-dichloroanilino)-2-methyl-2-imidazoline (2-methylclonidine), 2-(2,6-dichloroanilino)-1-methyl-2-imidazoline (1-methylclonidine), 1-acetamido-2-(2,6-dichloroanilino)-2-imidazoline (1-acetamidoclonidine), 2-(2,6-dichloroanilino)-2-pyrroline, 2-(2,6-dichloroanilino)-2-oxazoline, 2-(2,6-dichloroanilino)-2-benzimidazole, 2-(2,6-dichloroanilino)-1,3-dimethylguanidine, 2-(2,6-dichloroanilino)-1-methylguanidine, 2-(2,6-dichloroanilino)guanidine, aniline or 2-(2,6-dichlorobenzyl)-2-imidazoline in the presence of labelled clonidine.

Row | Molecule | recognition by the antibody in the presence of labelled clonidine
1 | Clc1cccc(Cl)c1CC1=NCCN1 [2-(2,6-dichlorobenzyl)-2-imidazoline] | failed to recognize
2 | Cc1cccc(NC2=NCCN2)c1Cl [2-(2-chloro-3-methylanilino)-2-imidazoline] | recognized
3 | c1ccc(NC2=NCCN2)cc1 [2-anilino-2-imidazoline] | failed to recognize
4 | NS(=O)(=O)c1cc(Cl)c(NC2=NCCN2)c(Cl)c1 [2-(2,6-dichloro-4-sulfonamidoanilino)-2-imidazoline] | recognized
5 | Nc1ccccc1 [aniline] | failed to recognize
6 | CN1CCN=C1Nc1c(Cl)cccc1Cl [2-(2,6-dichloroanilino)-1-methyl-2-imidazoline] | failed to recognize
7 | CC(=O)NN1CCN=C1Nc1c(Cl)cccc1Cl [1-acetamido-2-(2,6-dichloroanilino)-2-imidazoline] | recognized
8 | Cc1cccc(Cl)c1NC1=NCCN1 [2-(2-chloro-6-methylanilino)-2-imidazoline] | recognized
9 | 2-(2,6-dichloroanilino)-1,3-dimethylguanidine | failed to recognize
10 | 2-(2,6-dichloroanilino)-2-methyl-2-imidazoline | failed to recognize
11 | Clc1cccc(Cl)c1NC1=NCCO1 [2-(2,6-dichloro-anilino)-2-oxazoline, 2-(2,6-dichloroanilino)-2-oxazoline] | failed to recognize
12 | Oc1cc(Cl)c(NC2=NCCN2)c(Cl)c1 [2-(2,6-dichloro-4-hydroxyanilino)-2-imidazoline] | recognized
13 | 2-(2,6-dichloroanilino)guanidine [2-(2,6-dichloro-anilino)guanidine] | failed to recognize
14 | Cc1ccc(NC2=NCCN2)c(Cl)c1 [2-(2-chloro-4-methylanilino)-2-imidazoline] | recognized

Same assay, conditions: antiserum 1:50, about 18 hours at 4° C., pH 7.4

Row | concentration required relative to that of clonidine (cross-reactivity) | Molecule
15 | about 40 times that of clonidine | 2-(2,6-dichloroanilino)-1-methylguanidine
16 | about 40 times that of clonidine | Clc1cccc(Cl)c1NC1=CCCN1 [2-(2,6-dichloroanilino)-2-pyrroline]

Same assay, conditions: read-out: concentration producing a 50% inhibition of binding of clonidine-14C to the antibody; antiserum 1:50, about 18 hours at 4° C., pH 7.4, ammonium sulfate precipitation

Row | Molecule | IC50 [µM]
17 | Clc1cccc(Cl)c1N=C1NCCN1 [Clonidine] | 0.025
